How the values were obtained:
[1] = target: Rho-associated protein kinase 2 (Homo sapiens, UniProt O75116); assay: Inhibition of His-tagged human ROCK2 expressed in Sf9 cells pre-incubated for 10 mins before S6 peptide substrate addition in presence of [33P]ATP and measured after 20 mins by scintillation counting
Saphenous artery = assay: Vasorelaxant activity in isolated Chinchilla rabbit saphenous artery vessels assessed as inhibition of phenylephrine-mediated contraction; type: functional, tissue-based; settings: Oryctolagus cuniculus
in vivo [2] = settings: Wistar, rat, iv, 0.5 mg/kg
[3] = target: RAF proto-oncogene serine/threonine-protein kinase (Homo sapiens, UniProt P04049); assay: Inhibition of human c-RAF
[4] = target: Voltage-gated L-type calcium channel (Homo sapiens, UniProt Q13936+Q13698+Q01668+O60840); assay: Inhibition of L-type calcium channel (unknown origin); type: protein assay
[5] = target: Myosin light chain kinase, smooth muscle (Homo sapiens, UniProt Q15746); assay: Inhibition of MYLK (unknown origin)
Rattus norvegicus [6] = assay: Anti-hypertensive effect in anaesthetized Wistar rat assessed as blood-pressure-lowering effect at 0.3 mg/kg, iv relative to control; type: functional
in vivo [7] = settings: Wistar, rat, iv, 0.5 mg/kg; remark: listed apart in the source
[8] = target: Voltage-gated inwardly rectifying potassium channel KCNH2 (Homo sapiens, UniProt Q12809); assay: Inhibition of human ERG channel assessed as reduction in K+ current by whole-cell voltage-clamp assay; type: toxicity
[9] = target: T1, Tyrosine-protein kinase receptor UFO (Homo sapiens, UniProt P30530); assay: Inhibition of human AXL
T1 sequence (P30530 whole entry): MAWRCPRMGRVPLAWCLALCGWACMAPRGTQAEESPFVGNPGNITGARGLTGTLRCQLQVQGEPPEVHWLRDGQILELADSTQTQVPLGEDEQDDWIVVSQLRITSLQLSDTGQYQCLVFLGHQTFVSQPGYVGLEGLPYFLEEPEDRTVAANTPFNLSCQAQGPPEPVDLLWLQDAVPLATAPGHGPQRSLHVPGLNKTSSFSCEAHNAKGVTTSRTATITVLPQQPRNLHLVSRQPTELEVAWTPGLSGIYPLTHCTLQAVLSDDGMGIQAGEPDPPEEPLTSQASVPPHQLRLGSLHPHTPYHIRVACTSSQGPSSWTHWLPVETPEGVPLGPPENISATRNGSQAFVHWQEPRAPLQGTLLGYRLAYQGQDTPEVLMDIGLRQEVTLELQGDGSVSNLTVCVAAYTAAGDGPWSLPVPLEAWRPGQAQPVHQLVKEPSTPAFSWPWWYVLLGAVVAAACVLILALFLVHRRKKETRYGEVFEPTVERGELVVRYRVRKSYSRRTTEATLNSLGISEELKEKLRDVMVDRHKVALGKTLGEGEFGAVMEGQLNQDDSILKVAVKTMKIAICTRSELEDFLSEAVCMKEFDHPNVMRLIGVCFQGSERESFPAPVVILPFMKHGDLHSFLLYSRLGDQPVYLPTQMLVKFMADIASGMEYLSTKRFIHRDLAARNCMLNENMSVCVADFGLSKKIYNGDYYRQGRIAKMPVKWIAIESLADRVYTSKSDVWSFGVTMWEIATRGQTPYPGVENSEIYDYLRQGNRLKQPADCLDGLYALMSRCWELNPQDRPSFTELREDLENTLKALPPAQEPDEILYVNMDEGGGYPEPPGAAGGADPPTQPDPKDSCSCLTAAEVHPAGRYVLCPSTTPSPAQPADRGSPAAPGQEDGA

in vivo [10] = settings: Wistar, rat, po, 1 mg/kg
[11] = Inhibition of sodium channel (unknown origin); design: species or system Homo sapiens
[12] = buffer
Rattus norvegicus [13] = assay: Anti-hypertensive effect in anaesthetized Wistar rat assessed as blood-pressure-lowering effect at 3 mg/kg, iv relative to control; type: functional

Sequence of Rho-associated protein kinase 2 (O75116 whole entry): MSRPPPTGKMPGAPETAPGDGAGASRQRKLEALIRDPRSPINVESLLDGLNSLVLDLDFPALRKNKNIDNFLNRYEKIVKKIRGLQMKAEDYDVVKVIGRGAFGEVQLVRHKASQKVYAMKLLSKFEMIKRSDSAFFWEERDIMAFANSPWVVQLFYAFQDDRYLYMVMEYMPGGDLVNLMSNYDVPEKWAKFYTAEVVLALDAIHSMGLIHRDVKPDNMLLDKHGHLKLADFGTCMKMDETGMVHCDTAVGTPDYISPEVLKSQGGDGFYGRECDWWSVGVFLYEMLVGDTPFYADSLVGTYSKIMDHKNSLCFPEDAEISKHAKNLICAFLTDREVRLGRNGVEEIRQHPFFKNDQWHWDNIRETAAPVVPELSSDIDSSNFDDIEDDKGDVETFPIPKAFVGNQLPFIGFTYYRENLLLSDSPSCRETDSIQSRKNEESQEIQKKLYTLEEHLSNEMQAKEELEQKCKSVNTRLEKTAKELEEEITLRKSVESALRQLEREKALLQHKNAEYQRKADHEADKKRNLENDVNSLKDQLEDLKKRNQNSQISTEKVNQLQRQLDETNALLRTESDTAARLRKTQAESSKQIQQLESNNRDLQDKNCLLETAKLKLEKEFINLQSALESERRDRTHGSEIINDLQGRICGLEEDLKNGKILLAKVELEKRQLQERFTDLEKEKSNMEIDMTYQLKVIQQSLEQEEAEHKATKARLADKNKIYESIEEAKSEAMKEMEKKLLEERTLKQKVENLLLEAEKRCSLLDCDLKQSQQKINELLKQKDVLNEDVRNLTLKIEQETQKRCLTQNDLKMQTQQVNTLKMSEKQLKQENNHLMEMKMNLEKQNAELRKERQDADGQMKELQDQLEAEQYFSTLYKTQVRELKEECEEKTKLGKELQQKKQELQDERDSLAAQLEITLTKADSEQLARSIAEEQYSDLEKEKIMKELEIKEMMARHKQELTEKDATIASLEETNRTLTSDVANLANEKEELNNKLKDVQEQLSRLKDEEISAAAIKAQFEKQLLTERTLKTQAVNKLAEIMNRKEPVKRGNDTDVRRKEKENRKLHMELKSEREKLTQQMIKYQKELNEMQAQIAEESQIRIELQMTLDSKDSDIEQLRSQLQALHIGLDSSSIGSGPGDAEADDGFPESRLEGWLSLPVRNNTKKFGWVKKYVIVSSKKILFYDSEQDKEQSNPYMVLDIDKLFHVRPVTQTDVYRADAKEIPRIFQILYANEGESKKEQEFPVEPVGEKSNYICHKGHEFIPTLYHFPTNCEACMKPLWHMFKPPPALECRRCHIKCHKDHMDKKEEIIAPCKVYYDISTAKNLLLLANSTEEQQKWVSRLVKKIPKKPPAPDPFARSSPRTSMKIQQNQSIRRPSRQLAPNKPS
Sequence of RAF proto-oncogene serine/threonine-protein kinase (P04049 whole entry): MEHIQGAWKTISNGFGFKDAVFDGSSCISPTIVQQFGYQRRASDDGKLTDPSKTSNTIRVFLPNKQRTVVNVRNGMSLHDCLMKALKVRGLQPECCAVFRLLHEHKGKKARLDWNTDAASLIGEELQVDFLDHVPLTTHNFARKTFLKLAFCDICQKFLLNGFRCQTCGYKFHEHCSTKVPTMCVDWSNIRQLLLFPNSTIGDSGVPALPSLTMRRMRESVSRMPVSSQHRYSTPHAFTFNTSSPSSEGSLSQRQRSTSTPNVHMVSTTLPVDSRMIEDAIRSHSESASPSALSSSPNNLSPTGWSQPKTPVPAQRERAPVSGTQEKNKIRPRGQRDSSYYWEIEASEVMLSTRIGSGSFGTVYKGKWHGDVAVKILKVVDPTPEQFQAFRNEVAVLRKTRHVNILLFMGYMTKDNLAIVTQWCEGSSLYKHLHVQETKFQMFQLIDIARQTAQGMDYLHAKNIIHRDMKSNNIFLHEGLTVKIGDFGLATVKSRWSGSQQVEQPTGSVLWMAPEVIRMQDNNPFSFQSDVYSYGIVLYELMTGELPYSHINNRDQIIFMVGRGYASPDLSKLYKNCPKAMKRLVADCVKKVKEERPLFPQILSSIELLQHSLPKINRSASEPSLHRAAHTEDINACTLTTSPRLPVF
Sequence of Voltage-gated inwardly rectifying potassium channel KCNH2 (Q12809 whole entry): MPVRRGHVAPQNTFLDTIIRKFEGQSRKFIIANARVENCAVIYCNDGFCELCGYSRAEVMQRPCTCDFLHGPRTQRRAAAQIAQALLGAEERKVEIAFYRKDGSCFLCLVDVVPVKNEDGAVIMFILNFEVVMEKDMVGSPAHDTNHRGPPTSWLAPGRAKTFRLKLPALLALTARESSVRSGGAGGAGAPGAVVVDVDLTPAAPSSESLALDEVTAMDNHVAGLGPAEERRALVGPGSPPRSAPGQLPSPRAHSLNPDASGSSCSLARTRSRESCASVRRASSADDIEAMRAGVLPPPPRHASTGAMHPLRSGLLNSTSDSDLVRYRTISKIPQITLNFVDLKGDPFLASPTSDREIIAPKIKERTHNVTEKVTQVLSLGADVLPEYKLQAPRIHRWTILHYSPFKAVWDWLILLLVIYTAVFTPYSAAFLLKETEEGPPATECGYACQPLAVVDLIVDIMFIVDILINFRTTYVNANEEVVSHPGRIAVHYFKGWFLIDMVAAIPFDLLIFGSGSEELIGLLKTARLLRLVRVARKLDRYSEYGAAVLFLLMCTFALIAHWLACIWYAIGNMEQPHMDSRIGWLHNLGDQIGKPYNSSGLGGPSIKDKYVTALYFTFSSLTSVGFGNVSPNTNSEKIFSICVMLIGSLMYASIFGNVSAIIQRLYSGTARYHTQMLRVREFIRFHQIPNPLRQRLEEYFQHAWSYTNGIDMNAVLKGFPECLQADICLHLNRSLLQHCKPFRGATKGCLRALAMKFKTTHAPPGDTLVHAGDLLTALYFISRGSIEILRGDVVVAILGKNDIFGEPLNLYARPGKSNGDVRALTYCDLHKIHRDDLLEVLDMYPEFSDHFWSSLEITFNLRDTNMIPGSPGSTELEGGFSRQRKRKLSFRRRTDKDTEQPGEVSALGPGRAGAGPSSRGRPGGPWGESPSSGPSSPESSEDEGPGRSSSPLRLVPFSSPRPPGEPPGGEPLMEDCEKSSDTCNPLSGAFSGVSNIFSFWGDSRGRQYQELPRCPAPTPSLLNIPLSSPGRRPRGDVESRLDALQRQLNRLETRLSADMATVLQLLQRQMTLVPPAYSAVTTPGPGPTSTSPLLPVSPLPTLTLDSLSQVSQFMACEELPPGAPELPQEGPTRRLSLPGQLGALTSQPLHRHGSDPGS
Sequence of Myosin light chain kinase, smooth muscle (Q15746 whole entry): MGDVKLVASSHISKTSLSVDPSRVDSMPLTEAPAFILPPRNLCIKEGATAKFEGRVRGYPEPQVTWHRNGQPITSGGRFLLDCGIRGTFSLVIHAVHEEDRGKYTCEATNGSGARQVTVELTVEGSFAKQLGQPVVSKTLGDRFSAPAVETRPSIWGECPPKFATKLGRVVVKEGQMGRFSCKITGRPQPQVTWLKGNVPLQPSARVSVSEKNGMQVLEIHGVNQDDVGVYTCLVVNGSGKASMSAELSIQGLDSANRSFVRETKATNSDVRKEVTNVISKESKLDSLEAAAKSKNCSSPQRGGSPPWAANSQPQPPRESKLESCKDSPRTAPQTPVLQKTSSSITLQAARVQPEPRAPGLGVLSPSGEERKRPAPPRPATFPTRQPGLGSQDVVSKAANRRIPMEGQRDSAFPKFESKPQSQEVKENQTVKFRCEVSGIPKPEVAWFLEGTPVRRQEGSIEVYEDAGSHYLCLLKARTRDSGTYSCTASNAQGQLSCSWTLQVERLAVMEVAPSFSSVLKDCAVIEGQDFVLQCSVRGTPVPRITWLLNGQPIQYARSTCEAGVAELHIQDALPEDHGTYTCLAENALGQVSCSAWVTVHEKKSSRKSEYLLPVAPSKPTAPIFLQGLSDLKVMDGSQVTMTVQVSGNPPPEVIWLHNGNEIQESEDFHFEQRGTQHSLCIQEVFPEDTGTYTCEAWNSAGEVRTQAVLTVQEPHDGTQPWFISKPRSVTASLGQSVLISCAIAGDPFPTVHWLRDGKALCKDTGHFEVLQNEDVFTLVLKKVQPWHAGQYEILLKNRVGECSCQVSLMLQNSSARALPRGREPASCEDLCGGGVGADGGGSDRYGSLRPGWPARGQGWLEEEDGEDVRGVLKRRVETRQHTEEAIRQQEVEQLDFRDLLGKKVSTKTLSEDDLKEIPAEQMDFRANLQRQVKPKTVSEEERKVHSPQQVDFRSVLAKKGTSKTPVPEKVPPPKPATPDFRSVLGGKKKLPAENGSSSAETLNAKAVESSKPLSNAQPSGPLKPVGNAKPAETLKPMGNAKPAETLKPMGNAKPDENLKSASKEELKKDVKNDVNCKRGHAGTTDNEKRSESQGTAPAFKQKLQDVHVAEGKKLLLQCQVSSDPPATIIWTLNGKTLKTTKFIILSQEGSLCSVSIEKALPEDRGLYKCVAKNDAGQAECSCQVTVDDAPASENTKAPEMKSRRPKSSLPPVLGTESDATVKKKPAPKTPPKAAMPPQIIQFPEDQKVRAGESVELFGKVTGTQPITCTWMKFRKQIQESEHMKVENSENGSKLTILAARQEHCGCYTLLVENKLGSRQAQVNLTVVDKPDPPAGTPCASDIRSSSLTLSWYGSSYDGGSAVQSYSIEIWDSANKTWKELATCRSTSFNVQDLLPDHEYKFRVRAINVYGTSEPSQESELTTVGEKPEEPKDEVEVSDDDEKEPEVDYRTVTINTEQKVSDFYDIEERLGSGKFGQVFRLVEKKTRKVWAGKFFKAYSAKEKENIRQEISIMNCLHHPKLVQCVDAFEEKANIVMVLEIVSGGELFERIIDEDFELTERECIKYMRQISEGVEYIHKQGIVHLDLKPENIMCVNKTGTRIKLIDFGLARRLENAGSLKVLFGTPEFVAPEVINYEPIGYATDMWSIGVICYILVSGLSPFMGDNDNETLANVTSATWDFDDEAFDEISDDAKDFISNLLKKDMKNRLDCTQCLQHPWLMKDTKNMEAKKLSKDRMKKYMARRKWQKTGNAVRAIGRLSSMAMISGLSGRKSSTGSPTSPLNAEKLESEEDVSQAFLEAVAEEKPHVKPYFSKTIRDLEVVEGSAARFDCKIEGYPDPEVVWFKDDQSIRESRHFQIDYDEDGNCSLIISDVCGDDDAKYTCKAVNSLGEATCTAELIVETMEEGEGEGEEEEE

Compound | IC50 [1] [nM] | IC50 (Saphenous artery) [nM] | also measured
Nc1nc(Nc2ccc(Oc3ccnc4[nH]ncc34)c(F)c2)cc(-c2ccncc2)n1 | > 3000 |  | 
Nc1nc(Nc2ccc(Oc3cccc4cnccc34)c(F)c2)cc(-c2ccncc2)n1 | 200 |  | 
Cc1c[nH]c2nccc(Oc3ccc(Nc4cc(Cl)nc(N)n4)cc3F)c12 |  | 100 | 
Cc1c[nH]c2nccc(Oc3c(F)cc(Nc4cc(Cl)nc(N)n4)cc3F)c12 [BAY-549] |  | 65 | half-life (in vivo [2]): 72 min; IC50 [3]: 1000 nM; IC50 [4]: 6700 nM; IC50 [5]: 7400 nM; Activity (Rattus norvegicus [6]): 35 mmHg; clearance (in vivo [7]): 28.3 mL/min/kg; inhibition (INH) [8]: Not Active; IC50 [9]: 1000 nM; bioavailability (in vivo [10]): 48%; IC50 [11]: 6800 nM
Cc1cc(Nc2ccc(Sc3ccncc3)cc2)nc(N)n1 | 800 |  | 
Nc1nc(Nc2ccc(Oc3cccc4[nH]ncc34)c(F)c2)cc(-c2ccncc2)n1 | 380 |  | 
Cc1n[nH]c2cccc(Oc3ccc(Nc4cc(-c5ccncc5)nc(N)n4)cc3F)c12 |  | 6800 | 
Nc1nc(Nc2ccc(Oc3ccnc4[nH]ccc34)c(F)c2)cc(-c2ccncc2)n1 |  | 270 | half-life (in vivo [2]): 18 min; clearance (in vivo [7]): 88.3 mL/min/kg; Activity (Rattus norvegicus [13]): 65 mmHg; bioavailability (in vivo [10]): 18%
Nc1nc(Nc2ccc(Oc3ccnc4[nH]ccc34)c(F)c2)cc(C2CCCNC2)n1 (centres undefined) |  | 230 | 
Cc1c[nH]c2nccc(Oc3ccc(Nc4ccnc(N)n4)cc3F)c12 | 4 | 84 | half-life (in vivo [2]): 30 min; clearance (in vivo [7]): 35 mL/min/kg
Nc1nc(Nc2ccc(Oc3cccc4[nH]ccc34)c(F)c2)cc(-c2ccncc2)n1 | > 3000 |  | 

Continued, in another order:

IC50 [1] [nM] | IC50 (Saphenous artery) [nM] | Compound | also measured
8 | 1200 | CCc1c[nH]c2nccc(Oc3ccc(Nc4cc(-c5ccncc5)nc(N)n4)cc3F)c12 | 
6 | 410 | Nc1nc(Nc2ccc(Oc3ccnc4[nH]ccc34)c(F)c2)cc(N2CCNCC2)n1 | 
0.9 | 20 | N#Cc1c[nH]c2nccc(Oc3c(F)cc(Nc4ccnc(N)n4)cc3F)c12 | solubility [12]: Insoluble
17 | 1500 | Nc1nccc(Nc2ccc(Oc3ccnc4[nH]ccc34)c(F)c2)n1 | 
7 | 460 | Nc1nc(Nc2ccc(Oc3ccnc4[nH]ccc34)c(F)c2)cc(-c2ccccn2)n1 | 
90 |  | Cc1cc(Nc2ccc(Sc3ccncc3)c(F)c2)nc(N)n1 | 
3 | 89 | Cc1c[nH]c2nccc(Oc3ccc(Nc4cc(-c5ccncc5)nc(N)n4)cc3F)c12 | Activity (Rattus norvegicus [13]): 70 mmHg
2 | 570 | Nc1nc(Nc2ccc(Oc3ccnc4[nH]ccc34)c(F)c2)cc(C2CCNCC2)n1 | 
9 | 1100 | Nc1nc(Cl)cc(Nc2ccc(Oc3ccnc4[nH]ccc34)c(F)c2)n1 | 
2 | 82 | Nc1nc(Nc2cc(F)c(Oc3ccnc4[nH]cc(Cl)c34)c(F)c2)cc(C(F)(F)F)n1 | solubility [12]: Insoluble
10 | 370 | Nc1nc(Nc2ccc(Oc3ccnc4[nH]ccc34)c(F)c2)cc(-c2cccnc2)n1 | 
11 | 1700 | Cc1cc(Nc2ccc(Oc3ccnc4[nH]ccc34)c(F)c2)nc(N)n1 | 
2 | 56 | Cc1c[nH]c2nccc(Oc3c(F)cc(Nc4ccnc(N)n4)cc3F)c12 | half-life (in vivo [2]): 54 min; clearance (in vivo [7]): 26.7 mL/min/kg
11 | 500 | Nc1nc(Nc2ccc(Sc3ccncc3)c(F)c2)cc(-c2ccncc2)n1 | 
16 | 940 | Nc1nc(Nc2ccc(Oc3ccnc4[nH]ccc34)c(F)c2)cc(N2CCCC2)n1 | 
7 | 710 | Nc1nc(Nc2ccc(Oc3ccnc4[nH]ccc34)c(F)c2)cc(C(F)(F)F)n1 | 
